Data taken from PubChem BioAssay (NCI).
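The compound was tested at five concentrations on cells cultured in 96-well plates, with a 48-hour exposure period. GI50 = concentration required for 50% inhibition of growth. TGI: total growth inhibition.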

Experiments:
Experiment in all cases: NCI tumour cell line growth inhibition, 48 h
NCI-H23 lung = system: NCI-H23 lung
OVCAR-8 ovarian = system: OVCAR-8 ovarian
SK-OV-3 ovarian = system: SK-OV-3 ovarian
UACC-62 melanoma = system: UACC-62 melanoma
CCRF-CEM leukemia = system: CCRF-CEM leukemia
HCC-2998 colon = system: HCC-2998 colon
MALME-3M melanoma = system: MALME-3M melanoma
MOLT-4 leukemia = system: MOLT-4 leukemia
SNB-75 CNS = system: SNB-75 CNS
A498 renal = system: A498 renal

| Structure (SMILES) | GI50 (NCI-H23 lung) [µM] | TGI (NCI-H23 lung) [µM] | GI50 (OVCAR-8 ovarian) [µM] | TGI (OVCAR-8 ovarian) [µM] | GI50 (SK-OV-3 ovarian) [µM] | TGI (SK-OV-3 ovarian) [µM] | GI50 (UACC-62 melanoma) [µM] | TGI (UACC-62 melanoma) [µM] | TGI (CCRF-CEM leukemia) [µM] | TGI (HCC-2998 colon) [µM] | TGI (MALME-3M melanoma) [µM] | TGI (MOLT-4 leukemia) [µM] | TGI (SNB-75 CNS) [µM] | TGI (A498 renal) [µM] | GI50 (A498 renal) [nM] | GI50 (HCC-2998 colon) [nM] | GI50 (MALME-3M melanoma) [nM] | GI50 (CCRF-CEM leukemia) [µM] | GI50 (MOLT-4 leukemia) [nM] | GI50 (SNB-75 CNS) [nM] |
| --- | --- | --- | --- | --- | --- | --- | --- | --- | --- | --- | --- | --- | --- | --- | --- | --- | --- | --- | --- | --- |
| CSC1C(=O)c2ccccc2/C(=N/Nc2nc3ccccc3s2)C1C (stereo not given) | 11.2 | 28.3 | 10.7 | 28.6 | 35.2 | > 50 | 8.67 | 16.5 |  |  |  |  |  |  |  |  |  |  |  |  |
| O=C(N/C(=C\c1ccc(Oc2ccc(Cl)c(Cl)c2)cc1)c1nc2ccccc2[nH]1)c1ccccc1 |  | 27.7 |  | 28.6 |  | 79.2 |  | 33.5 | 88.5 | 31.7 | 43.8 | 93.4 |  |  |  |  |  |  |  |  |
| Clc1nc(Cl)c(Cc2ccccc2)c(Cl)n1 |  | 37.5 |  | 19 |  | 28.9 |  | 16.9 | > 100 | 66.1 | 63.2 | > 100 | 22.5 |  |  |  |  |  |  |  |
| C=CCCCCCC(O)C(O)C/C=C\C/C=C\CC (stereo not given) |  | > 18.8 |  | > 18.8 |  | > 18.8 |  | > 18.8 | > 18.8 | > 18.8 | > 18.8 | > 18.8 | > 18.8 |  |  |  |  |  |  |  |
| COC(=O)C(CC(=O)Nc1ccc(Cl)c(Cl)c1)C(=O)C(=O)NC1C2CC3CC(C2)CC1C3 (stereo not given) |  | > 100 |  | > 100 |  | > 100 |  | > 100 | > 100 | > 100 | > 100 | > 100 |  | > 100 |  |  |  |  |  |  |
| O=C1c2c(nc3ccccc3c2-c2ccccc2)CN1Nc1ccccc1 |  |  |  | > 100 |  | > 100 |  | > 100 | > 100 | > 100 | > 100 | > 100 |  |  |  |  |  |  |  |  |
| COc1ccccc1/C=N/N=C(\N)NO |  | > 100 |  |  |  | > 100 |  | 33.7 | > 100 | 29.2 | > 100 | > 100 |  | > 100 |  |  |  |  |  |  |
| COc1cc([N+](=O)[O-])c(OC)cc1-c1nc2sc(Cl)cn2c1/C=N/NC(=N)N/N=C/c1c(-c2cc(OC)c([N+](=O)[O-])cc2OC)nc2sc(Cl)cn12 |  |  |  |  |  |  |  |  |  | 3.15 | 3.28 |  |  | 3.13 | 1700 | 1690 | 1610 |  |  |  |
| COc1cc(C(=O)CC2(O)C(=O)Nc3c(Cl)cc(Cl)cc32)ccc1O (stereo not given) |  | > 100 |  | > 100 |  | > 100 |  |  | > 100 | 88.7 | > 100 | > 100 | 93 |  |  |  |  |  |  |  |
| CC1SC(=O)SC1C (stereo not given) |  |  |  | > 100 |  | > 100 |  |  | > 100 | > 100 |  | > 100 | > 100 |  |  |  |  |  |  |  |
| CC(C)C[C@@H]1NC(=O)[C@@H]2CCCN2C(=O)[C@@H]2CCCN2C(=O)[C@H](CC(C)C)NC(=O)[C@H](CO)NC(=O)[C@H](CCCCN)NC(=O)[C@H]([C@H](C)O)NC(=O)[C@@H]2CCCC[C@@H](NC1=O)C(=O)N[C@@H](Cc1ccccc1)C(=O)N1CCC[C@H]1C(=O)N[C@@H](CC(=O)O)C(=O)NCC(=O)N[C@@H](CCCN=C(N)N)C(=O)N2 | > 50 | > 50 | > 50 | > 50 | > 50 | > 50 | > 50 | > 50 | > 50 | > 50 | > 50 | > 50 |  |  |  | > 50000 | > 50000 | > 50 | > 50000 |  |
| N#CC(NNC(=O)c1ccccc1O)c1ccccc1 (stereo not given) |  | > 100 |  | > 100 |  | > 100 |  | 1.93 | > 100 |  | > 100 | > 100 | > 100 |  |  |  |  |  |  |  |
| Cc1cccc2c1C(=O)OC2(C)c1cccc2ccccc12 (stereo not given) |  | > 100 |  | > 100 |  |  |  |  | 80.4 | 50.9 | > 100 | 88.8 | 87.7 |  |  |  |  |  |  |  |
| NC(CCSC(F)F)C(=O)O (stereo not given) |  | > 100 |  | > 100 |  | > 100 |  | > 100 | > 100 | > 100 | > 100 | > 100 | > 100 |  |  |  |  |  |  |  |
| C=CC(=O)Nc1cccc(C)c1Nc1ncc2cc(-c3c(Cl)c(OC)cc(OC)c3Cl)ccc2n1 | 9.31 | 34.2 | 4.83 | 47 | 18.3 | 82.6 | 7.96 | 42.9 | > 100 | 31.9 | 31.4 | 7.61 | 44.9 |  |  | 12400 | 3980 | 4.44 | 1760 | 2570 |
| Cc1cc(C)c(NS(=O)c2cccc(Cl)c2)c(C)c1 (stereo not given) |  | > 100 |  | > 100 |  |  |  |  | > 100 |  | > 100 | > 100 |  | > 100 |  |  |  |  |  |  |
| Clc1ccc2c(c1)-c1ccccc1C1=NCCN12 | 1.85 | 4.75 | 1.22 | 5.4 | 2.68 | 8.64 | 1.6 | 3.48 | 4.08 | 3.76 | 4.17 | 3.11 | 5.42 |  |  | 1870 | 1770 | 1.7 | 1010 | 1620 |
